# Measured values taken from patent US20230414612A1, “PHARMACEUTICAL COMPOSITION COMPRISING A CAP-DEPENDENT ENDONUCLEASE INHIBITOR” (TaiGen Biotechnology Co., Ltd., priority 2022, published 2023).
# Experiments:
# [1] = 14-day repeated-dose oral toxicity study; assay type: in vivo; settings: 300 mg/kg/day
# Procedure: (§1) The term “therapeutically effective amount” refers to the amount or dose of an active compound or salt thereof that is sufficient to prevent development of, or alleviate to some extent, one or more of the symptoms of the disorder, disease, or condition being treated. […] In addition, the effect of Compound A on influenza virus growth in lungs of BALB/c mice infected with low infectious dose 100 pfu/mouse of A/PR/8/34 at one-day post-infection was conducted. […] Therefore, based on the results of these preliminary in vivo animal studies, it is estimated that the reasonable therapeutically effective amount of the compound of Formula (I) or a pharmaceutically acceptable salt thereof for human can be about 5-200 mg, about 5-150 mg, about 5-100 mg, about 10-80 mg, about 10-40 mg, about 10-30 mg, about 10-20 mg, about 5-10 mg, about 5-20 mg, about 20-40 mg, or about 40-80 mg. For example but not limited thereto, the therapeutically effective amount of the compound of Formula (I) or a pharmaceutically acceptable salt thereof is 5 mg, 10 mg, 15 mg, 20 mg, 25 mg, 30 mg, 35 mg, 40 mg, 45 mg, 50 mg, 55 mg, 60 mg, 65 mg, 70 mg, 75 mg, 80 mg, 85 mg, 90 mg, 95 mg, 100 mg, 105 mg, 110 mg, 115 mg, 120 mg, 125 mg, 130 mg, 135 mg, 140 mg, 145 mg, 150 mg, 155 mg, 160 mg, 165 mg, 170 mg, 175 mg, 180 mg, 185 mg, 190 mg, 195 mg, or 200 mg.
# [2] = Dissolution assessment: solubility in FaSSIF; assay type: physicochemical
# Procedure: An amount of Compound A (about 6 mg) and amorphous solid dispersion (equivalent to around 6 mg Compound A) were weighed into an 8 ml bottle, and 6 ml FaSSIF (Fasted state simulated intestinal fluid) was added (target concentration 1.0 mg/ml). Then the suspensions were stirred at thermomixer at 37° C. under 600 rpm 200 μL of suspensions were withdrawn at setting time (such as 5 min) and then centrifuged at 14000 rpm for 4 min. After that, 100 μL of supernatant was diluted with CAN five times to prevent precipitation, and was analyzed by HPLC.
# FaSSIF was prepared by following steps: 1) Place 0.1024 g sodium hydroxide, 0.7518 g sodium dihydrogen phosphate anhydrous and 1.5470 g sodium chloride in a 250 mL volumetric flask, add about 225 mL water, and adjust the pH to 6.5 with 1N sodium hydroxide or 1N hydrochloric acid. Make up to volume (250 mL) with pure water. 2) Place and dissolve 0.4480 g SIF Powder Original with 100 mL of buffer (from step 1) in a 200 mL volumetric flask, add water to volume and mix well.
# [3] = system: influenza virus (A/PR/8/34); experiment: In vivo influenza virus infection mouse model (survival rate, body weight change); settings: 5 mg/kg, oral, BALB/c mouse infected with A/PR/8/34
# Procedure: as §1
# [4] = system: influenza virus A/PR/8/34; experiment: Influenza virus growth in lungs of infected BALB/c mice; assay type: in vivo; settings: 5 and 25 mg/kg; 100 pfu/mouse A/PR/8/34; one-day post-infection
# Procedure: as §1
# [5] = Stability study of Compound A and amorphous solid dispersions (total impurity level, TRS %); assay type: physicochemical
# Procedure: The amorphous solid dispersions were stored at 4° C. (closed) or 40° C./75% RH (closed and open state). After 10 days or 4 weeks, samples were observed by camera, characterized by XRPD and analyzed by HPLC for purity as well as kinetic solubility. All the samples for closed storage conditions were put into clear glass vials with gaskets and screwed caps. All the samples for open storage conditions were put into clear glass vials with cap, while the month of vials was covered by aluminium foil with pinholes to avoid cross-contamination.
# The sample number in TABLE 2 corresponds to the sample number in TABLE 1.
structure (smiles),measurement,setting,value
"COC(=O)OCOc1c2n(ccc1=O)N([C@H]1c3ccccc3CSc3c1ccc(F)c3F)CC1(CC1)C2=O [Compound A, [1-((11S)-7,8-difluoro(6H,11H-dibenzo[c,f]thiepin-11-yl))-4,6-dioxospiro[1,2,3,9-tetrahydropyridino[1,2-e]pyridazine-3,1′-cyclopropane]-5-yloxy]methyl methoxyformate]",deaths or toxic effect,[1],did not cause deaths or have toxic effect
same,"Solubility, 5 min","[2]; FaSSIF, 37° C., 600 rpm, target concentration 1.0 mg/ml, 5 min",4.95 µg/mL
same,"Solubility, 15 min","[2]; FaSSIF, 37° C., 600 rpm, target concentration 1.0 mg/ml, 15 min",4.89 µg/mL
same,aqueous solubility,[2]; statement in words,low aqueous solubility
same,antiviral efficacy on body weight change,[3],good antiviral efficacy
same,antiviral efficacy on survival rate,[3],good antiviral efficacy
same,Virus titers in lungs vs vehicle treated group,[4],significantly lower
same,4° C. Closed for 4 wks TRS %,"[5]; 4° C., closed, 4 weeks",0.76%
same,40° C./75% RH Closed for 4 wks TRS %,"[5]; 40° C./75% RH, closed, 4 weeks",0.86%
same,40° C./75% RH Open for 4 wks TRS %,"[5]; 40° C./75% RH, open, 4 weeks (cells without #)",0.82%
same,Initial TRS %,"[5]; initial, total relative substances by HPLC",0.79%
